Active and inactive are the calls of the source.
Assays:
Cytochrome P450 2D6 = Cytochrome P450 2D6 (Homo sapiens, UniProt P10635);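 also: CYP2D6 member of a cytochrome P450 panel assay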
HeLa = assay: HeLa cell cytotoxicity, dose response, cytotoxicity control for MITF activator project, CellTiter-Glo luminescence, cherry-pick samples (AID 540259); type: functional, cell-based; conditions: Homo sapiens
Cytochrome P450 2C19 = Cytochrome P450 2C19 (Homo sapiens, UniProt P33261); assay: Cytochrome panel assay with activity outcomes. Panel member name: p450-cyp2c19 Compounds with AC50 equal or less than 10 uM are considered active; type: functional
SUMO-activating enzyme [1] = biological target: T1, SUMO-activating enzyme (Homo sapiens, UniProt Q9UBT2); assay: inhibitors of in vitro SUMOylation cascade, primary screen, biochemical, HTRF, uHTS (AID 2006); type: protein-complex assay
SUMO-activating enzyme [2] = biological target: T1, SUMO-activating enzyme; assay: SUMOylation inhibitor hit validation, confirmation, SUMOylation inhibitor project, biochemical, AlphaScreen (AID 2018); type: functional
[3] = biological target: T2, Alkaline phosphatase, tissue-nonspecific isozyme (Homo sapiens, UniProt P05186); assay: human TNAP enzyme inhibitors, SAR follow-up, biochemical, luminescent, dose response (AID 1056)
T2 sequence (P05186 whole entry): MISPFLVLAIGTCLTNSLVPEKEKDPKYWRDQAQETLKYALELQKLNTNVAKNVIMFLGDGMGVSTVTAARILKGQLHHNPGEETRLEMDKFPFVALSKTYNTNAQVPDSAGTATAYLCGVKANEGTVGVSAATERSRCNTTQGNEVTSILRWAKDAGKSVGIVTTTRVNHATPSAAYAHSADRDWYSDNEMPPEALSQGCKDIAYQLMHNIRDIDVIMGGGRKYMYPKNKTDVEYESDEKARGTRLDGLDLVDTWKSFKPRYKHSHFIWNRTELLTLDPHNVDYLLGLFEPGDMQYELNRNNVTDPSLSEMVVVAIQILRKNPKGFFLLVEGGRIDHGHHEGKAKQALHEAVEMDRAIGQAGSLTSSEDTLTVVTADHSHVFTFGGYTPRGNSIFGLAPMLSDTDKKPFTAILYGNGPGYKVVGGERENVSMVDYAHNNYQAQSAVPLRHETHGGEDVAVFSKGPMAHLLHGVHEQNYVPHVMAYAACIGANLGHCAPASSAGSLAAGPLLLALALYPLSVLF

[4] = biological target: T3, Histone-lysine N-methyltransferase NSD2 (Homo sapiens, UniProt O96028); type: biochemical
T3 sequence (O96028 whole entry): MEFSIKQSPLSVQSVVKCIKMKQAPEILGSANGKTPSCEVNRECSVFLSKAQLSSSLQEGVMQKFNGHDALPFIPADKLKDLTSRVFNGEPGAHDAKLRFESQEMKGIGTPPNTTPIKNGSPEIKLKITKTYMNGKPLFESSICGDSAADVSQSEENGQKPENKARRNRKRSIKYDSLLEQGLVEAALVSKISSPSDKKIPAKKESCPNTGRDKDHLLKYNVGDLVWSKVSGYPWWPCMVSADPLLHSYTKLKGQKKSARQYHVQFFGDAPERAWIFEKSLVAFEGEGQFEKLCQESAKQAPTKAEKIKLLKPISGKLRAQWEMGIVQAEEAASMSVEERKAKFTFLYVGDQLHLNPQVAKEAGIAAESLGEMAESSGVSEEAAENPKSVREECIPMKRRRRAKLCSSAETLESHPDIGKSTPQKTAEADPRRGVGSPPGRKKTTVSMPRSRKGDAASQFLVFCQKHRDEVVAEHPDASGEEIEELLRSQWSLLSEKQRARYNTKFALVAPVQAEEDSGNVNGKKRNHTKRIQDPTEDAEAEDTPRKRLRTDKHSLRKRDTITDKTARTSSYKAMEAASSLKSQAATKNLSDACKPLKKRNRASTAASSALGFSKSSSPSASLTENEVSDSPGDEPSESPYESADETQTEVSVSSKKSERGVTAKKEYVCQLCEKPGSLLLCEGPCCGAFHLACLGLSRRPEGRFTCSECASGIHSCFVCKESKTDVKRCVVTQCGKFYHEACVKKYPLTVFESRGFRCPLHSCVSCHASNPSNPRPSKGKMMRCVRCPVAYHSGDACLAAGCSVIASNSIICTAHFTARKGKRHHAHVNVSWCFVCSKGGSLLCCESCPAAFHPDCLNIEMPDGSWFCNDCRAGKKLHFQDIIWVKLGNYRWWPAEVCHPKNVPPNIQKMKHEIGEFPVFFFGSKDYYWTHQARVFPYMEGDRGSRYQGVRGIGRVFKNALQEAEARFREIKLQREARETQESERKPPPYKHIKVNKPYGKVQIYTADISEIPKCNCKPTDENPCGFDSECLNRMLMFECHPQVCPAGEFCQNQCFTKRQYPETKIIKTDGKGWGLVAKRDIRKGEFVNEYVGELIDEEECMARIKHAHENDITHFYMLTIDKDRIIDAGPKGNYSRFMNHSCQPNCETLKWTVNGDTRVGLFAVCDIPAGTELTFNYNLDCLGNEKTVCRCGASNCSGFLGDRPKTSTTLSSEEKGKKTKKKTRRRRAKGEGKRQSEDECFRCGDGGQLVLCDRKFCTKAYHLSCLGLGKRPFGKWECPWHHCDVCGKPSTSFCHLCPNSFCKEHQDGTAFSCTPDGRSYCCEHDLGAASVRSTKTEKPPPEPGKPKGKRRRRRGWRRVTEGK

[5] = biological target: Alkaline phosphatase, placental type (Homo sapiens, UniProt P05187); assay: PLAP enzyme inhibitors, confirmation, biochemical, luminescence (AID 1512); type: functional
[6] = Vero E6 cell cytotoxicity, dose response, cytotoxicity control for non-replicating M. tuberculosis project, secondary assay (AID 492998); type: functional, VeroE6; conditions: Vero C1008
[7] = biological target: T4, Rac GTPase-activating protein 1 (Homo sapiens, UniProt Q9H0H5); assay: MgcRacGAP GTPase-activating activity inhibitors, confirmation, biochemical, ADP Hunter fluorescence, primary and confirmatory (AID 624330); type: functional
T4 sequence (Q9H0H5 whole entry): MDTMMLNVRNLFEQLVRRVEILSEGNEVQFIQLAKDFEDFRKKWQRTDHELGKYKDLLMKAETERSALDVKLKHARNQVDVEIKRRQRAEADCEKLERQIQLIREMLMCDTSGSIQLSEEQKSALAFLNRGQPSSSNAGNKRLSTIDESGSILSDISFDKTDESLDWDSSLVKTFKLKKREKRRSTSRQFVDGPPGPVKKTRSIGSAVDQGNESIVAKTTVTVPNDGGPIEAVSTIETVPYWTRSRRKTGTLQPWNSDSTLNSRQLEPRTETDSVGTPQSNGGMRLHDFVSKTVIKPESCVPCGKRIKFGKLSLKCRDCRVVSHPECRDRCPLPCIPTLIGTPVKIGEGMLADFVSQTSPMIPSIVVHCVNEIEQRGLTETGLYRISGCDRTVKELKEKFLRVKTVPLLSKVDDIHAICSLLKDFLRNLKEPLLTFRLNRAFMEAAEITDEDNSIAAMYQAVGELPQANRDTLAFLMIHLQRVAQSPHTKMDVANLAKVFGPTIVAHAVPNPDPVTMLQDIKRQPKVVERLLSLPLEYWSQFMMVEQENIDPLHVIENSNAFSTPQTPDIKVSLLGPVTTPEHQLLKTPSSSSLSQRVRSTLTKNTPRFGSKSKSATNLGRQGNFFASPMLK

cells [8] = type: functional
[9] = biological target: Induced myeloid leukemia cell differentiation protein Mcl-1 (Homo sapiens, UniProt Q07820); type: functional
Cytochrome P450 1A2 = biological target: T5, Cytochrome P450 1A2 (Homo sapiens, UniProt P05177);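 also: PubChem cytochrome P450 panel assay, CYP1A2 panel member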
T5 sequence (P05177 whole entry): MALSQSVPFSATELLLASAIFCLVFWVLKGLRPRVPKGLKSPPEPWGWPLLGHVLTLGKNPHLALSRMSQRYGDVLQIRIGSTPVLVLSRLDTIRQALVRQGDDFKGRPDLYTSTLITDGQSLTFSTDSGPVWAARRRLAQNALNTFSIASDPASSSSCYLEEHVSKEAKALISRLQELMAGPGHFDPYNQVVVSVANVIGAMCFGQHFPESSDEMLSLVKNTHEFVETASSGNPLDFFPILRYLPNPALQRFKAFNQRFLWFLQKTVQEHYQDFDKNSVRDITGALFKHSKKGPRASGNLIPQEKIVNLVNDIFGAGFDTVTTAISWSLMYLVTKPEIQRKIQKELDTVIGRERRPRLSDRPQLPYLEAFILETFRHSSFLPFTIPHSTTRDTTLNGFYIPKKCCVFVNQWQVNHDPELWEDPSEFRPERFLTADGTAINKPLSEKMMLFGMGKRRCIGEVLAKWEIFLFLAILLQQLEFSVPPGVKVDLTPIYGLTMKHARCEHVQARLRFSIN

Cytochrome P450 2C9 = Cytochrome P450 2C9 (Homo sapiens, UniProt P11712)
Streptococcus = assay: Group A Streptococcus viability loss, dose response, counter-screen for streptokinase expression inhibitor project, luminescence, BacTiterGlo (AID 1915); type: functional, organism-based;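 also: potency for reduction of bacterial viability or growth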
[10] = test system: Streptococcus sp. 'group A'; assay: growth inhibition of control SK(-) GAS strain, dose response, counter-screen for streptokinase expression inhibitor project, luminescence, kanamycin, BacTiterGlo, confirmation (AID 1900); type: functional, organism-based
[11] = THP-1 cell cytotoxicity, dose response, cytotoxicity control for non-replicating M. tuberculosis project (AID 489025); type: functional
Streptokinase A = biological target: T6, Streptokinase A (Streptococcus pyogenes serotype M1, UniProt P10520); assay: S. pyogenes streptokinase expression inhibitors, potency, dose response, plasminogen activation absorbance, OD405 (AID 1914); type: functional, Streptococcus pyogenes M1 GAS;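 also: secreted streptokinase activity via plasminogen activation per viability signal from cell pellet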
T6 sequence (P10520 whole entry): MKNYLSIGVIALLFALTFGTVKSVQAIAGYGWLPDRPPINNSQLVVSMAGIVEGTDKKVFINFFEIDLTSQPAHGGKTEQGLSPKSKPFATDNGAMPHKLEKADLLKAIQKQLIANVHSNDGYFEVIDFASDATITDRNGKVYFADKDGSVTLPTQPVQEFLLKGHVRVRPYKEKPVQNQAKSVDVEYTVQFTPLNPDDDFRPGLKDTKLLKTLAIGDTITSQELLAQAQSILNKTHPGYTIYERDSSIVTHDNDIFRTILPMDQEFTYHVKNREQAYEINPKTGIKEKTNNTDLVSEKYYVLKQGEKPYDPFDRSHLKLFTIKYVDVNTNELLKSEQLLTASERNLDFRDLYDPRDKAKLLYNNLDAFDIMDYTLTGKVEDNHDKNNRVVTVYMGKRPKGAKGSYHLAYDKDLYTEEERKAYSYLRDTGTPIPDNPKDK

cells [12] = assay: cells
[13] = HEp-2 cell cytotoxicity, dose response, cytotoxicity control for RSV inhibitor project, HTS (AID 2410); type: functional; conditions: human respiratory syncytial virus
Vero [14] = assay: cells; type: functional, cell-based; conditions: Chlorocebus sabaeus
Vero [15] = assay: cells; type: functional; conditions: Chlorocebus sabaeus
[16] = biological target: T7, Microphthalmia-associated transcription factor (Homo sapiens, UniProt O75030); assay: TRPM1 promoter luciferase signal decrease, dose response, MITF inhibitor project, cell-based, SK-MEL-5, cherry-picked, set 3 (AID 493073); type: functional
T7 sequence (O75030 whole entry): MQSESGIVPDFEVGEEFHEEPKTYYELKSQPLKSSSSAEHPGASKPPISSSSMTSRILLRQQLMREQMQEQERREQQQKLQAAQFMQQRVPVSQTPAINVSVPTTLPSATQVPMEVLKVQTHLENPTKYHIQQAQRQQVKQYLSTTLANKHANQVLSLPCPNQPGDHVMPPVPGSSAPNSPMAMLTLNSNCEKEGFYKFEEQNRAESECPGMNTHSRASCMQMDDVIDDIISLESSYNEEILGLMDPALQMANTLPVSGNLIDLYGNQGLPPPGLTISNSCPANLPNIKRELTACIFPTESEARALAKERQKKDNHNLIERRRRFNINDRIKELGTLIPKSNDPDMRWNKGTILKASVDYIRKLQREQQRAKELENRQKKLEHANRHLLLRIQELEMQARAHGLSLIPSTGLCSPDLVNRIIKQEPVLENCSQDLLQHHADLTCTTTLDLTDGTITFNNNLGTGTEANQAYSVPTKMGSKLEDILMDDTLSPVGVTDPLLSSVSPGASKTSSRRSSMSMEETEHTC

Chain of Cytochrome P450 2D6 (P10635 whole entry): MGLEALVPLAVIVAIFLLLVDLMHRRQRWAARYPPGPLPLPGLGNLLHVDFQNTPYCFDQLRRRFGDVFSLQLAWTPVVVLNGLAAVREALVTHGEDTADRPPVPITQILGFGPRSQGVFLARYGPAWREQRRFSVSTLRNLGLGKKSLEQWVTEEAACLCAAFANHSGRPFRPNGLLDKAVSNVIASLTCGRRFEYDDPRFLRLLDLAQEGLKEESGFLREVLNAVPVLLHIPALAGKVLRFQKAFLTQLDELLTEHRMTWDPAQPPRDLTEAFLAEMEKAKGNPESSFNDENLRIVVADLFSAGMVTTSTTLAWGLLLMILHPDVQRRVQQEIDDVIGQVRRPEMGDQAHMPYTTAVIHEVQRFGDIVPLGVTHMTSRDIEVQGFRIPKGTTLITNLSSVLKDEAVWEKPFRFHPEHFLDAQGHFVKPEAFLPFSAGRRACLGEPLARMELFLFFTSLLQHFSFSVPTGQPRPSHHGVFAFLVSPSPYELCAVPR
T1 sequence (Q9UBE0 whole entry): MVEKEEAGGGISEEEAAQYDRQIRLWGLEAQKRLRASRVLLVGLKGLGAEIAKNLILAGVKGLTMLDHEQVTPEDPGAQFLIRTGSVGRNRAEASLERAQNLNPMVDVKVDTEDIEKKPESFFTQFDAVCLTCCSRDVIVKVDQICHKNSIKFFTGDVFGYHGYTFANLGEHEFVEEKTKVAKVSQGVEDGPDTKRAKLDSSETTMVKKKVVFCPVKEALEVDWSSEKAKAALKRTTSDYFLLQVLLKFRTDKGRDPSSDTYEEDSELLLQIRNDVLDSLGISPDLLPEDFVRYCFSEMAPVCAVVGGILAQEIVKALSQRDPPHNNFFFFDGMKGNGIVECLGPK
T1 sequence (Q9UBT2 whole entry): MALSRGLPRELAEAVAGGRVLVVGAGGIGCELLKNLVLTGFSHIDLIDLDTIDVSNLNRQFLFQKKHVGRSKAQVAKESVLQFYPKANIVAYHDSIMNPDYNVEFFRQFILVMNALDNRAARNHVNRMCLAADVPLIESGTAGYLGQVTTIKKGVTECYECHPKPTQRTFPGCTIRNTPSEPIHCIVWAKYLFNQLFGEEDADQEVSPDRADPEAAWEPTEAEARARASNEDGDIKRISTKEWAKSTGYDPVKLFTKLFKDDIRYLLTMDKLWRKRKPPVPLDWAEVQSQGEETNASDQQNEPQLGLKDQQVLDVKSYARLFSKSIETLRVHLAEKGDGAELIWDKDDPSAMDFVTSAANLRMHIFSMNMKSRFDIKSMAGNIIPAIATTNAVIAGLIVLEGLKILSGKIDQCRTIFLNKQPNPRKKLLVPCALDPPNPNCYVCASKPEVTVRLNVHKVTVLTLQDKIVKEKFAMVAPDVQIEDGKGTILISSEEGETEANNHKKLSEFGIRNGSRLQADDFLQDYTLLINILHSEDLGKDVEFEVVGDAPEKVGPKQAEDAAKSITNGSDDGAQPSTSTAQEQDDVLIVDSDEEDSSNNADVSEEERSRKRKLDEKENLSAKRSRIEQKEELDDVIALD
Chain of Cytochrome P450 2C19 (P33261 whole entry): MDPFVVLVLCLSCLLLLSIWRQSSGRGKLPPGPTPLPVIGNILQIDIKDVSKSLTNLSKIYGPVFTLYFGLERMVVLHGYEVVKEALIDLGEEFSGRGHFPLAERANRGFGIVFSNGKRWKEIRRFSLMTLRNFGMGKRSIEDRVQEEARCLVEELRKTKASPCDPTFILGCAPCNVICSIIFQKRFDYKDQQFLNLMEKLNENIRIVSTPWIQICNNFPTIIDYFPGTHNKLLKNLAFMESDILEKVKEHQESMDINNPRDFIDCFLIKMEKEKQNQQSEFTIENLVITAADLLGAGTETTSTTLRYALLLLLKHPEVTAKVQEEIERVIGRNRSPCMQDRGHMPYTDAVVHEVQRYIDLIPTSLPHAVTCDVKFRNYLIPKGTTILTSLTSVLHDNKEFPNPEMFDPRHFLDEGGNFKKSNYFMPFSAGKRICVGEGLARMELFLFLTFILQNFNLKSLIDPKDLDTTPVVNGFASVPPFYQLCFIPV
Chain of Induced myeloid leukemia cell differentiation protein Mcl-1 (Q07820 whole entry): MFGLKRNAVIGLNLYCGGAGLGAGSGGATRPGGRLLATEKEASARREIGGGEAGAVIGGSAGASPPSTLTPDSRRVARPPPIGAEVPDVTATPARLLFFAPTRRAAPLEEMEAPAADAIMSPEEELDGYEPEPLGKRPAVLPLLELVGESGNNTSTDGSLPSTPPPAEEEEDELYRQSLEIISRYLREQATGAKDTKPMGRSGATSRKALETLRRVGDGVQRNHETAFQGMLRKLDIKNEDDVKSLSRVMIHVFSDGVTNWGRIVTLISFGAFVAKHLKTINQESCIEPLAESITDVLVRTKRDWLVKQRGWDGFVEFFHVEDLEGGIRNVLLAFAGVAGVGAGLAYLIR
Chain of Cytochrome P450 2C9 (P11712 whole entry): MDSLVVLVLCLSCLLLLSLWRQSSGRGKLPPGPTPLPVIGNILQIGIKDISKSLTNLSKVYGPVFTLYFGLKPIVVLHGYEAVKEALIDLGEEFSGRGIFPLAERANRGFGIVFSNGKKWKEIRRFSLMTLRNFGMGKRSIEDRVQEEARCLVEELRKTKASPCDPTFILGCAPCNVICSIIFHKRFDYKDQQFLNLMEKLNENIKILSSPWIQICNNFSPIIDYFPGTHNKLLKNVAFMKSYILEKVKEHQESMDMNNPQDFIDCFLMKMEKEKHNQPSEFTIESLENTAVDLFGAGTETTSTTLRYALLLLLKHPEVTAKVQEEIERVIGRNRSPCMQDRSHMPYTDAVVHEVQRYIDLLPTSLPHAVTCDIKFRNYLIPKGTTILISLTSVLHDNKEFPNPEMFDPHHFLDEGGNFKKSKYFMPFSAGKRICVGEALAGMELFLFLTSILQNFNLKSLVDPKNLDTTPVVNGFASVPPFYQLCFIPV
Chain of Alkaline phosphatase, placental type (P05187 whole entry): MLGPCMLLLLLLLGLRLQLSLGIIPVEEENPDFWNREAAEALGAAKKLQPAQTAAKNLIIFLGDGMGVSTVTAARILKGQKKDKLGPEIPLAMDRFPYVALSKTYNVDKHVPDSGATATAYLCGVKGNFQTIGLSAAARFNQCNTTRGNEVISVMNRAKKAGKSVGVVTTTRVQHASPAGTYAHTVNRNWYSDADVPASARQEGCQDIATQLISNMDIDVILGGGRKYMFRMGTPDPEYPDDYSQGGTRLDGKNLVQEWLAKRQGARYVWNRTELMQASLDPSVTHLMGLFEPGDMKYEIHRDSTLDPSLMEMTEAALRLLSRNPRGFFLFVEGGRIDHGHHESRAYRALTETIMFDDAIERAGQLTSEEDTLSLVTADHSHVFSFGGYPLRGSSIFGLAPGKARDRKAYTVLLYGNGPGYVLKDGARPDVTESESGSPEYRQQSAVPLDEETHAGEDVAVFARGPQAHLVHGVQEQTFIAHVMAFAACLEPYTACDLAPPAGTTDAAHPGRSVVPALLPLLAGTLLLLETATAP

## O=C(O)c1nn(-c2ccccc2)nc1-c1nn(-c2ccccc2)nc1C(=O)O
Cytochrome P450 2D6
  AC50: inconclusive

## CCNc1nc(N)nc(Oc2ccc(C(=O)OC)cc2)n1
HeLa
  AC50: 245 µM (active)

## C[C@@H](c1ccccc1)N1C(=O)[C@H]2[C@@H]3[C@H](O)C=CC(=O)[C@H]3CC[C@H]2C1=O
Cytochrome P450 2D6
  AC50: inconclusive
Cytochrome P450 2C19
  AC50: inconclusive

## COc1ccc(C(=O)Nc2ccc(-c3nnn(CC(=O)N4CCN(C(=O)c5ccco5)CC4)n3)cc2)cc1
SUMO-activating enzyme [1]
  IC50: 30 µM (active)
SUMO-activating enzyme [2]
  IC50: 13 µM (active)

## NC(=O)c1ccc(-n2nnnc2SCC(=O)c2ccc(O)c(O)c2)cc1
[3]
  IC50: 3.48 µM (active)
[4]
  AC50: > 20 µM (inactive)
[5]
  IC50: 1.76 µM (active)

## CCN(CC)c1ccc(NC(=O)CSc2nc(C3CC3)nc3ccccc23)cc1C
SUMO-activating enzyme [1]
  IC50: 27 µM (active)
SUMO-activating enzyme [2]
  IC50: 7.43 µM (active)

## COc1cc(NCCC(=O)c2cccs2)c(OC)cc1Cl
[6]
  CC50: > 20 µM (active)
[7]
  IC50: 58.1 µM (active)
Cells [8]
  IC50: 8.46 µM (active)
[9]
  IC50: 4.38 µM (not active)

## Oc1ccc(N=Nc2ccccc2)cc1
[7]
  IC50: 70.9 µM (active)
HeLa
  AC50: 98.1 µM (active)

## Cc1cc(C)nc(Nc2n[nH]c(-c3cccc4ccccc34)n2)n1
Cytochrome P450 2D6
  AC50: inconclusive
Cytochrome P450 2C19; read-out: AC50
  AC50: 17.8 µM (inconclusive)

## COc1ccc(/C=N/C(CO)C(O)c2ccc([N+](=O)[O-])cc2)cc1 (centres undefined)
Cytochrome P450 2D6
  AC50: inconclusive
Cytochrome P450 1A2
  AC50: 20 µM (inconclusive)
Cytochrome P450 2C9
  AC50: 2.51 µM (inconclusive)

## CCCCCC/C(=N/O)c1ccccn1
Streptococcus
  EC50: 40 µM (active)
[10]
  EC50: 7.92 µM (active)
[6]
  CC50: 15.2 µM (active)
[11]
  CC50: 20.2 µM (active)
Cells [8]
  IC50: 6.74 µM (active)
Streptokinase A
  EC50: > 150 µM (not active)

## C/C(N)=C(/C#N)C(=O)COC(=O)c1cc(C)n(-c2ccc(F)cc2)c1C
Cells [12]
  IC50: 29.9 µM (active)
[13]
  CC50: 18.8 µM (active)
Vero [14]
  IC50: 8.93 µM (active)

## CCCN1CCC(NCc2cn(C)nc2-c2ccc(Oc3ccccc3)cc2)CC1
Vero [14]
  IC50: 23.1 µM (active)
Vero [15]
  CC50: > 25 µM (active)
[16]
  AC50: 8.35 µM (active)
